From PubChem BioAssay (NCI)
Several values for one entry are separate records, joined by “and”; a condition that tells them apart may be missing. Equal entries are not always repeated.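 A five-concentration, 48-hour dose response in 96-well plates underlies each endpoint, interpolated linearly between surrounding concentrations. The concentration for 50% growth inhibition is given as GI50. TGI is the concentration that stops growth completely.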

Assays:
Test in all cases: inhibition of tumour cell growth, NCI panel, 48 h
SF-295 CNS = tested on: SF-295 CNS
OVCAR-3 ovarian = tested on: OVCAR-3 ovarian
DU-145 prostate = tested on: DU-145 prostate
SK-MEL-5 melanoma = tested on: SK-MEL-5 melanoma
NCI-H522 lung = tested on: NCI-H522 lung
HOP-62 NSCLC = tested on: HOP-62 NSCLC
NCI-H460 lung = tested on: NCI-H460 lung
M14 melanoma = tested on: M14 melanoma
A498 renal = tested on: A498 renal
UACC-62 melanoma = tested on: UACC-62 melanoma
SK-OV-3 ovarian = tested on: SK-OV-3 ovarian
CAKI-1 renal = tested on: CAKI-1 renal
NCI-H226 lung = tested on: NCI-H226 lung
OVCAR-5 ovarian = tested on: OVCAR-5 ovarian
HS 578T breast = tested on: HS 578T breast
SNB-19 CNS = tested on: SNB-19 CNS
SF-268 CNS = tested on: SF-268 CNS
A549 NSCLC = tested on: A549 NSCLC
SN12C renal = tested on: SN12C renal
BT-549 breast = tested on: BT-549 breast
U251 CNS = tested on: U251 CNS
COLO 205 colon = tested on: COLO 205 colon
SNB-75 CNS = tested on: SNB-75 CNS
T-47D breast = tested on: T-47D breast
MDA-MB-435 = tested on: MDA-MB-435
786-0 renal = tested on: 786-0 renal
NCI-H23 lung = tested on: NCI-H23 lung
HCC-2998 colon = tested on: HCC-2998 colon
KM12 colon = tested on: KM12 colon
SR leukemia = tested on: SR leukemia
HL-60(TB) leukemia = tested on: HL-60(TB) leukemia
HOP-92 NSCLC = tested on: HOP-92 NSCLC
IGROV1 ovarian = tested on: IGROV1 ovarian
UO-31 renal = tested on: UO-31 renal
CCRF-CEM leukemia = tested on: CCRF-CEM leukemia
HCT-15 colon = tested on: HCT-15 colon
PC-3 prostate = tested on: PC-3 prostate
MOLT-4 leukemia = tested on: MOLT-4 leukemia
K-562 leukemia = tested on: K-562 leukemia
MCF7 breast = tested on: MCF7 breast
HCT-116 colon = tested on: HCT-116 colon
NCI/ADR-RES ovarian = tested on: NCI/ADR-RES ovarian
SW-620 colon = tested on: SW-620 colon
OVCAR-8 ovarian = tested on: OVCAR-8 ovarian
RPMI-8226 leukemia = tested on: RPMI-8226 leukemia
UACC-257 melanoma = tested on: UACC-257 melanoma
EKVX NSCLC = tested on: EKVX NSCLC
OVCAR-4 ovarian = tested on: OVCAR-4 ovarian
MALME-3M melanoma = tested on: MALME-3M melanoma
ACHN renal = tested on: ACHN renal
SF-539 CNS = tested on: SF-539 CNS
SK-MEL-28 melanoma = tested on: SK-MEL-28 melanoma
SK-MEL-2 melanoma = tested on: SK-MEL-2 melanoma
MDA-MB-231 breast = tested on: MDA-MB-231 breast
RXF 393 renal = tested on: RXF 393 renal
TK-10 renal = tested on: TK-10 renal
HT29 colon = tested on: HT29 colon
LOX IMVI melanoma = tested on: LOX IMVI melanoma

NC(N)=NC(N)=NCCc1ccccc1
GI50 (SF-295 CNS): 53.2 µM and > 100 µM
TGI (SF-295 CNS): > 100 µM
GI50 (OVCAR-3 ovarian): 83.9 µM and > 100 µM
TGI (OVCAR-3 ovarian): > 100 µM
GI50 (DU-145 prostate): > 100 µM
TGI (DU-145 prostate): > 100 µM
GI50 (SK-MEL-5 melanoma): 87.7 µM and 73.3 µM
TGI (SK-MEL-5 melanoma): > 100 µM
GI50 (NCI-H522 lung): 44.7 µM and > 100 µM
TGI (NCI-H522 lung): > 100 µM
GI50 (HOP-62 NSCLC): 37.4 µM and > 100 µM
TGI (HOP-62 NSCLC): > 100 µM
GI50 (NCI-H460 lung): > 100 µM
TGI (NCI-H460 lung): > 100 µM
GI50 (M14 melanoma): > 100 µM
TGI (M14 melanoma): > 100 µM
TGI (A498 renal): > 100 µM
GI50 (UACC-62 melanoma): > 100 µM
TGI (UACC-62 melanoma): > 100 µM
GI50 (SK-OV-3 ovarian): 64.9 µM and > 100 µM
TGI (SK-OV-3 ovarian): > 100 µM
GI50 (CAKI-1 renal): 58.5 µM and > 100 µM
TGI (CAKI-1 renal): > 100 µM
GI50 (NCI-H226 lung): > 100 µM
TGI (NCI-H226 lung): > 100 µM
GI50 (OVCAR-5 ovarian): > 100 µM
TGI (OVCAR-5 ovarian): > 100 µM
GI50 (HS 578T breast): > 100 µM
TGI (HS 578T breast): > 100 µM
GI50 (SNB-19 CNS): > 100 µM
TGI (SNB-19 CNS): > 100 µM
GI50 (SF-268 CNS): > 100 µM
TGI (SF-268 CNS): > 100 µM
GI50 (A549 NSCLC): > 100 µM and 97.1 µM
TGI (A549 NSCLC): > 100 µM
GI50 (SN12C renal): > 100 µM
TGI (SN12C renal): > 100 µM
GI50 (BT-549 breast): > 100 µM and 32.8 µM
TGI (BT-549 breast): > 100 µM
GI50 (U251 CNS): > 100 µM
TGI (U251 CNS): > 100 µM
GI50 (COLO 205 colon): > 100 µM
TGI (COLO 205 colon): > 100 µM
GI50 (SNB-75 CNS): > 100 µM and 81.2 µM
TGI (SNB-75 CNS): > 100 µM
GI50 (T-47D breast): 84.8 µM and > 100 µM
TGI (T-47D breast): > 100 µM
GI50 (MDA-MB-435): > 100 µM
TGI (MDA-MB-435): > 100 µM
GI50 (786-0 renal): > 100 µM
TGI (786-0 renal): > 100 µM
GI50 (NCI-H23 lung): 50.5 µM and 34.7 µM
TGI (NCI-H23 lung): > 100 µM
GI50 (HCC-2998 colon): > 100 µM
TGI (HCC-2998 colon): > 100 µM
GI50 (KM12 colon): > 100 µM
TGI (KM12 colon): > 100 µM
GI50 (SR leukemia): 8.44 µM
TGI (SR leukemia): > 100 µM
GI50 (HL-60(TB) leukemia): 77.4 µM and > 100 µM
TGI (HL-60(TB) leukemia): > 100 µM
GI50 (HOP-92 NSCLC): 1.51 µM
TGI (HOP-92 NSCLC): > 100 µM
GI50 (IGROV1 ovarian): > 100 µM
TGI (IGROV1 ovarian): > 100 µM
GI50 (UO-31 renal): 98.9 µM and 38.5 µM
TGI (UO-31 renal): > 100 µM
GI50 (CCRF-CEM leukemia): 56.1 µM and > 100 µM
TGI (CCRF-CEM leukemia): > 100 µM
GI50 (HCT-15 colon): > 100 µM
TGI (HCT-15 colon): > 100 µM
GI50 (PC-3 prostate): 45.3 µM and 60.3 µM
TGI (PC-3 prostate): > 100 µM
GI50 (MOLT-4 leukemia): > 100 µM
TGI (MOLT-4 leukemia): > 100 µM
GI50 (K-562 leukemia): 66.6 µM and 30.8 µM
TGI (K-562 leukemia): > 100 µM
GI50 (MCF7 breast): > 100 µM
TGI (MCF7 breast): > 100 µM
GI50 (HCT-116 colon): 92.5 µM and 36.3 µM
TGI (HCT-116 colon): > 100 µM
GI50 (NCI/ADR-RES ovarian): > 100 µM
TGI (NCI/ADR-RES ovarian): > 100 µM
GI50 (SW-620 colon): > 100 µM
TGI (SW-620 colon): > 100 µM
GI50 (OVCAR-8 ovarian): > 100 µM
TGI (OVCAR-8 ovarian): > 100 µM
GI50 (RPMI-8226 leukemia): 11.1 µM and 7.54 µM
TGI (RPMI-8226 leukemia): > 100 µM
GI50 (UACC-257 melanoma): > 100 µM and 97.3 µM
TGI (UACC-257 melanoma): > 100 µM
GI50 (EKVX NSCLC): 6.79 µM and 7.74 µM
TGI (EKVX NSCLC): > 100 µM
GI50 (OVCAR-4 ovarian): 66.7 µM and 97.9 µM
TGI (OVCAR-4 ovarian): > 100 µM
GI50 (MALME-3M melanoma): 72 µM
TGI (MALME-3M melanoma): > 100 µM
GI50 (ACHN renal): > 100 µM
TGI (ACHN renal): > 100 µM
GI50 (SF-539 CNS): > 100 µM
TGI (SF-539 CNS): > 100 µM
GI50 (SK-MEL-28 melanoma): > 100 µM
TGI (SK-MEL-28 melanoma): > 100 µM
GI50 (SK-MEL-2 melanoma): > 100 µM
TGI (SK-MEL-2 melanoma): > 100 µM
GI50 (MDA-MB-231 breast): > 100 µM
TGI (MDA-MB-231 breast): > 100 µM
GI50 (RXF 393 renal): > 100 µM
TGI (RXF 393 renal): > 100 µM
GI50 (TK-10 renal): 58.6 µM and > 100 µM
TGI (TK-10 renal): > 100 µM
GI50 (HT29 colon): > 100 µM
TGI (HT29 colon): > 100 µM
GI50 (LOX IMVI melanoma): > 100 µM
TGI (LOX IMVI melanoma): > 100 µM
